Measurements from patent publication US7470715B2, “Estrogen modulators” (Pfizer Inc., priority 2005, dated 2008).
pEC50: −log10 of the molar value. Where “and” joins values, the source holds several entries; their conditions need not be identical. Equal entries are not always repeated.

Key:
[1] = biological target: ligand binding domain of the estrogen receptor beta chain (ERβLBD) that contained a point mutation at amino acid residue 418 (pm418) (Homo sapiens, UniProt Q92731); assay: ER agonist cell assay (ERβ), Huh-7 co-transfection, luciferase; format: cell-based; details: for pEC50: Huh-7 cells co-transfected with pG5luc and ERβLBD(pm418), overnight incubation, luciferase; for ERβ % of Max E2 Response: percent of the maximum estradiol fold change, Huh-7, pG5luc and ERβLBD(pm418)
[2] = test system: hairless female SKH, 1-hr mice; assay: Animal model for reversal of wrinkles: skin thickness model, topical dosing, skin thickness and hyaluronic acid; format: in vivo, mouse; details: three days
Source text: Animal Model for Reversal of Wrinkles
Uzuka et al. describes an increase in mouse back skin water content, hyaluronic acid (HA) content, and hyaluronic acid synthetase activity following topical application or subcutaneous injection of estradiol (Biochimica et Biophysica Acta, 627, 199-206, 1980; Biochimica et Biophysica Acta 673, 387-393, 1981). […] Thus, this model may be used to as a preliminary screen to assess the potential for estrogen modulators to alleviate wrinkles in human skin.
The skin thickness model uses hairless female SKH, 1-hr mice. Mice aged to approximately 11 weeks are introduced into the laboratory environment and acclimated for at least 1 week prior to use in the study may be used. Each group typically consisted of 7 animals that may be run in parallel with vehicle and the positive control estradiol. Based on binding and/or cellular assay data, compounds are chosen for screening in this model. Those compounds include the products of Examples, 2, 9, 15, 46, 47, 48, 51, 52, 61, 135, and 137. Prior to topical application to mouse dorsal skin, a sufficient quantity of each compound is dissolved in a solvent generally consisting of ethanol and propylene glycol (70/30% v/v) (vehicle) to achieve the final concentration specified in Table C below. Animals are dosed topically QD or BID, for three days. Each dose consisted of 100 microliters of vehicle or drug applied uniformly to the entire dorsal surface (˜18 cm^2). All animals are sacrificed approximately 18-24 hours after the final dose. Skin thickness (ST) is measured using a caliper. HA is extracted from the skin and quantitated using commercially-available enzyme-linked immunosorbent assays (ELISAs)(HA).
Data are presented as percent of the estradiol response after subtracting out the ST for vehicle-treated mouse skin. The estradiol response is set to 100% and the vehicle resoibse becines 0%.

[3] = biological target: T1, ligand binding domain of the estrogen receptor alpha chain (ERαLBD) (Homo sapiens, UniProt P03372); assay: ER agonist cell assay (ERα), Huh-7 co-transfection, luciferase; format: cell-based; details: for pEC50: Huh-7 cells co-transfected with pG5luc and ERαLBD, overnight incubation, luciferase; for ERα % of Max E2 Response: percent of the maximum estradiol fold change, Huh-7, pG5luc and ERαLBD
T1 construct: expressed in transfected cells; host or cells: Huh-7 human hepatoma cells, transient transfection with FuGENE 6
T1 sequence (P03372 311-547 limits assumed): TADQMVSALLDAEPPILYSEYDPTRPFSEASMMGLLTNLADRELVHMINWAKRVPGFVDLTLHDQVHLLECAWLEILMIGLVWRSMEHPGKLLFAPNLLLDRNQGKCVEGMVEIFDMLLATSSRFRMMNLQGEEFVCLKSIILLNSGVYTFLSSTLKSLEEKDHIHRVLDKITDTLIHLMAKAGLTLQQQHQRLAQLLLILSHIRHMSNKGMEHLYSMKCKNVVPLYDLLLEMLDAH

[4] = 1% topical, BID, vehicle 0%, estradiol 100%

| Structure (SMILES) | pEC50 [1] | ERβ % of Max E2 Response [1] [%] | HA (hyaluronic acid), percent of the estradiol response ([2]; 0.5% topical, BID) | ST (skin thickness), percent of the estradiol response ([2]; 0.5% topical, BID) | ST (skin thickness), percent of the estradiol response [2, 4] | HA (hyaluronic acid), percent of the estradiol response ([2]; 1% topical, QD) | ST (skin thickness), percent of the estradiol response ([2]; 1% topical, QD) | pEC50 [3] | ERα % of Max E2 Response [3] [%] | melting point [°C] | other results |
| --- | --- | --- | --- | --- | --- | --- | --- | --- | --- | --- | --- |
| CC[C@@H](O)C1(c2onc(-c3ccc(O)cc3)c2-c2ccccc2)CC1 [Example 48, (R)-(−)-4-{5-[1-(1-Hydroxy-propyl)-cyclopropyl]-4-phenyl-isoxazol-3-yl}-phenol] | 7.07 | 71.8 | 84% | 78% | 72% and 89% | 47% and 42% | 64% and 41% | 7.50 | 88.8 | 163 to 164 | HA (hyaluronic acid), percent of the estradiol response ([2]; 0.03% topical, BID): 26%; ST (skin thickness), percent of the estradiol response ([2]; 0.03% topical, BID): 33%; HA (hyaluronic acid), percent of the estradiol response ([2]; 0.03% topical, QD): 18%; ST (skin thickness), percent of the estradiol response ([2]; 0.03% topical, QD): 13%; HA (hyaluronic acid), percent of the estradiol response ([2]; 0.1% topical, BID): 63%; ST (skin thickness), percent of the estradiol response ([2]; 0.1% topical, BID): 58%; HA (hyaluronic acid), percent of the estradiol response ([2]; 0.1% topical, QD): 32%; ST (skin thickness), percent of the estradiol response ([2]; 0.1% topical, QD): 29%; HA (hyaluronic acid), percent of the estradiol response ([2]; 0.3% topical, BID): 96%; ST (skin thickness), percent of the estradiol response ([2]; 0.3% topical, BID): 80%; HA (hyaluronic acid), percent of the estradiol response ([2]; 0.3% topical, QD): 41%; ST (skin thickness), percent of the estradiol response ([2]; 0.3% topical, QD): 57% |
| C[C@@H](O)C1(c2onc(-c3ccc(O)cc3)c2-c2ccccc2)CC1 [Example 46, (R)-(−)-4-{5-[1-(1-Hydroxy-ethyl)-cyclopropyl]-4-phenyl-isoxazol-3-yl}-phenol] | 7.36 | 99.7 | 39% and 68% and 76% | 53% and 71% and 73% | – | 48% | 36% | 7.48 | 106 | 219 to 221 | HA (hyaluronic acid), percent of the estradiol response ([2]; 0.015% topical, BID): 11%; ST (skin thickness), percent of the estradiol response ([2]; 0.015% topical, BID): 20%; HA (hyaluronic acid), percent of the estradiol response ([2]; 0.05% topical, BID): 52%; ST (skin thickness), percent of the estradiol response ([2]; 0.05% topical, BID): 47%; HA (hyaluronic acid), percent of the estradiol response ([2]; 0.15% topical, BID): 55%; ST (skin thickness), percent of the estradiol response ([2]; 0.15% topical, BID): 65% |
| OCC1(c2onc(-c3ccc(O)cc3)c2-c2ccccc2)CC1 [Example 2, 4-[5-(1-Hydroxymethyl-cyclopropyl)-4-phenyl-isoxazol-3-yl]-phenol] | – | – | – | – | – | 15% | 19% | – | – | 210 to 211 | – |
| CCC(O)C1(c2onc(-c3ccc(O)cc3)c2-c2ccccc2)CC1 (racemic) [Example 47, (±)-4-{5-[1-(1-Hydroxy-propyl)-cyclopropyl]-4-phenyl-isoxazol-3-yl}-phenol] | 6.84 | 87.4 | – | – | 53% | – | – | 7.65 | 92 | 175 to 176 | HA (hyaluronic acid), percent of the estradiol response [2, 4]: 59% |
